Assays:
[1] = test system: cognitive defects in aged rats; test: Morris water maze in aged rats; assay type: in vivo, Fischer rats
Experimental: Altogether 60 female aged (20-24 months) and 15 young adult female Fischer Rats (2-3 months) were used for the experiment. Rats were treated with oral gavage twice-a-day until the sampling (23 days) with vehicle or VX-745 0.5, 1.5 or 4.5 mg/kg. Learning and memory deficits were analyzed with Morris water maze (MWM) one week after starting the treatment.
All animal experiments were carried out according to the National Institute of Health (NIH) guidelines for the care and use of laboratory animals, and approved by the National Animal Experiment Board, Finland. Altogether 60 female aged (20-24 months) and 15 young (2-3 months) adult female Fischer rats (Charles River, France) were used for the experiment. Animals were housed at a standard temperature (22±1° C.) and in a light-controlled environment (lights on from 7 am to 8 pm) with ad libitum access to food and water. Animals were grouped as follows: • Group 1: 15 Aged Rats treated with Vehicle p.o. BID • Group 2: 15 Aged Rats treated with VX-745 (0.5 mg/kg) p.o. BID • Group 3: 15 Aged Rats treated with VX-745 (1.5 mg/kg) p.o. BID • Group 4: 15 Aged Rats treated with VX-745 (4.5 mg/kg) p.o. BID • Group 5: 15 Young adult control rats treated with Vehicle p.o. BID Drug Delivery and Rat Identification
The rats were assigned to the treatment groups equally based on their body weight and visible platform pre-training performance to ensure that both good and poor learners were equally present in all treatment groups. The treatment was given by oral gavage twice-a-day until the sampling. Vehicle was 1% Pluronic F108 and dosing volume was 5 ml/kg. Administration of vehicles and test compounds was done at 7-9 am and 3-5 pm on the pre-testing phase. On the days of behavioral testing, the treatment was given minimum 1 hour prior to first test trial. Test compounds were formulated and stored according to the instructions provided by the sponsor. The rats were marked accordingly with permanent marker to the tail. Records were kept about treatment groups and daily treatment times.
Water maze task was originally designed by Morris et al. (J Neurosci Methods. 1984; 11: 194 47-60). Testing was performed in a large dark-colored tank (200 cm in diameter) filled with clear water at a temperature of 25.0±1.0° C. A submerged platform (square platform: 10×10 cm; 1.5 cm below water surface) was placed in the middle of the of the NW quadrant. The starting locations, which were labeled N, NE, E, SE, S, SW, W, NW, were located arbitrarily on the pool rim. The rats were lowered into the pool with their nose pointing toward the wall at one of the starting points. The release point adjacent to platform location (NW) was not used.
Before the compound treatment was started, the visible platform pre-training was performed to determine whether any non-cognitive performance impairments (e.g. visual impairments and/or swimming difficulties) were present, which might affect performance on the place or probe trials. After the visible platform pre-training was completed, the data was analyzed and the rats were assigned to the different treatment groups based on their pre-training performance. This procedure was performed to ensure that each treatment group consisted equally both good and poor performers in the cued version of the water maze task.
Acquisition training—weeks 1 (days 8-11) & 2 (days 15-18): After completion of cued trials, acquisition (place) trials were executed to determine the rat's ability to learn the spatial relationship between distant cues and the submerged escape platform which remained in the same location for all place trials. The starting points were randomized (NW is not used). The rats received four trials (15 min apart, 60 s maximum for each trial) each day for 4 days/week. Latency and path length (distance) were evaluated.
Probe trial (day 19): A single probe trial was conducted 24 hours after the last place trial to evaluate memory retention. […]

[2] = Plasma concentration by LC-MS/MS 1 hour post dosing; assay type: in vivo, Fischer rats
Experimental: (§1) The primary objective of this study was to investigate whether pre-treatment with compound VX-745 alleviates cognitive defects in aged rats. Plasma concentration of VX-745 was determined with LC-MS/MS at the end of the study from samples collected 1 hour post dosing. In addition, protein levels of PSD95 in ventral cortex and hippocampus, and levels of IL-1β in the hippocampus were analyzed by specific ELISA assays to evaluate the potential anti-inflammatory effects of VX-745 in the brain
(§2) One hour after the last vehicle or VX-745 morning dosing, the animals (10 per dosing group) were deeply anesthetized with pentobarbital and blood samples were collected by cardiac puncture. 500 μl of blood was collected into EDTA microtubes, centrifuged, and plasma collected. The brains were perfused with heparinized saline, and the brains were collected. Right hemisphere was post-fixed by immersion in 4% PFA in 0.1 M PB for 24 h. After a brief wash with phosphate buffer, the hemisphere was cryoprotected in 30% sucrose in PB for 2-3 days, after which it was frozen on liquid nitrogen and stored at −80° C. for optional future immunohistochemical analysis. Left hemisphere was dissected to ventral and dorsal cortex, hippocampus and remaining brain fraction and fresh frozen on dry ice.
Plasma samples were processed using acetonitrile precipitation and then analyzed for VX745 drug concentration by LC-MS/MS

[3] = test system: IL-1β; test: IL-1β ELISA of hippocampus extracts; assay type: in vivo, Fischer rats
Experimental: as §1
as §2, with “Left hemisphere was dissected to ventral and dorsal cortex, hippocampus and remaining brain fraction and fresh frozen on dry ice.” left out
Cortex and hippocampal soluble extracts were analyzed for PSD95 content using an ELISA kit (Cusabio Biotech Ltd., #CSB-EL006938RA, Lot 031154387), while the levels of Il-1β were analyzed only from hippocampus (R&D Systems, #RLB00, Lot 308544).

[4] = test system: amyloid plaque load; test: 2-week pilot study in aged Tg2576 mice; assay type: in vivo; conditions: 26 month old Tg2576 mice, 2 weeks, versus control animals
[5] = animals; cited from earlier work
[6] = cited from earlier work
[7] = test system: paw swelling; conditions: 10 mg/kg, reference compound in arthritis model; cited from earlier work
[8] = test system: IL-1β signaling and IL-1β production; test: Inhibition of IL-1beta signaling versus IL-1beta production; assay type: cell-based, human; conditions: for potency for inhibition of cytokine (IL-1beta) signaling relative to inhibition of cytokine production: signaling versus production

VX-745
MWM distance at day 17 ([1]; 1.5 mg/kg p.o. BID versus vehicle-treated aged rats, p=0.0.019): statistically significant better performance
MWM change in latency from first test day to last test day ([1]; 1.5 mg/kg p.o. BID versus vehicle-treated aged rats, p=0.007): performed significantly better
MWM change in distance from first test day to last test day ([1]; 1.5 mg/kg p.o. BID versus vehicle-treated aged rats, p=0.012): performed significantly better
MWM latency at day 17 ([1]; 1.5 mg/kg p.o. BID versus vehicle-treated aged rats, p=0.013): statistically significant better performance
MWM latency and distance, comparison of dose groups ([1]; 1.5 mg/kg p.o. BID, about equal to young vehicle-treated rats on Day 17): greatest effect
MWM swim time and distance over sequential testing ([1]; VX-745-treated aged rats, p.o. BID): greater progressive shortening of swim time and distance
MWM probe trial parameters (day 19) ([1]; time in target quadrant and annulus, platform crosses): no positive or negative effects
plasma drug concentration relative to concentrations needed for IL-1β inhibition ([2]; 1.5 mg/kg): reached drug concentrations required for blocking IL-1β signaling
plasma drug concentration relative to concentrations needed for IL-1β inhibition ([2]; 4.5 mg/kg): reached concentrations exceeding whole blood IC50 for IL-1β production
plasma drug levels one hour after last dose ([2]; 0.5, 1.5 and 4.5 mg/kg p.o. BID, aged rats): increased in a dose proportional manner
IL-1β levels in the hippocampus ([3]; 1.5 mg/kg): no evident effects
IL-1β levels in the hippocampus ([3]; 4.5 mg/kg, p=0.038 Mann-Whitney, similar to young rats): lower relative to the aged vehicle-treated group
amyloid plaque load [4]: lower amyloid plaque load than control animals
neurological effects at very high doses [5]: adverse neurological effects
blood brain barrier penetration ([6]; animals): known to penetrate the blood brain barrier (BBB)
brain concentrations relative to plasma ([6]; brain versus plasma): 1.7 times
inhibition of paw swelling [7]: not as effective at inhibiting paw swelling as other compounds assayed
IC50 for inhibition of IL-1β signaling relative to IC50 for inhibition of IL-1β production ([8]; human systems, prior, previously undisclosed studies): approximately half
potency for inhibition of cytokine (IL-1beta) signaling relative to inhibition of cytokine production [8]: approximately twice
potency for inhibition of cytokine (IL-1beta) signaling relative to inhibition of cytokine production ([8]; listed as VX745): two-fold higher
